Laboratory results as given in patent US20250352562A1, “PREVENTION OF SYMPATHETIC DENERVATION OF THE PINEAL GLAND IN CARDIAC DISEASE” (TECHNISCHE UNIVERSITÄT MÜNCHEN, priority 2022, published 2025).
Entries after “also recorded” stand apart in the source; their conditions may differ.

Experiments:
[1] = system: nicotine-stimulated sympathetic neurons co-cultured with LPS-preactivated macrophages; assay: Co-culture of sympathetic neurons and bone marrow-derived macrophages; assay type: cell-based, mouse; conditions: CVF 20 U/ml for 90 min on LPS-preactivated macrophages; 1 μM nicotine; 48 h co-culture
Method: For the co-culture experiment, BMDM precursors were isolated and differentiated to macrophages as mentioned above. On day 6 of differentiation, primary neurons were isolated as described above. ˜5,000 neurons were seeded on separate wells of a 96-well Ibidi plate precoated with Laminin (0.1 mg/ml). At day 7 of differentiation, macrophages were either stimulated with PBS (control) or LPS (5 ng/ml) overnight. On the following day, LPS-preactivated macrophages were either incubated with PBS (control) or Cobra Venom Factor (CVF; 20 U/ml) for 90 min at 37° C. for complement inhibition. Afterwards, macrophages were chemically detached from the Petri dishes using Accutase and seeded around neurons. ˜10,000 macrophages were added per well. Co-culture medium was a mixture of neuronal and macrophage medium. Furthermore, part of the co-culture medium was supplemented with 1 μM Nicotine for artificial neuronal stimulation. 4 wells were cultivated per condition. One well per condition was transferred into the EVOS M7000 for live cell imaging (timelapse). […]
After 48 hours of co-culture (at 37° C. and 5% CO2), cells were fixated using 4% Paraformaldehyde. […] For quantification, two tilescans (2×2) per well were acquired using a 63× objective of a confocal microscope (Leica TCS SP5 II) and quantified for neuronal cell number and axonal dimensions using Imaris (Bitplane, version 9.5). […]

[2] = system: C3H/HeJ mice after bilateral removal of SCG (SCGx); assay: Assessment of diurnal rhythm after bilateral removal of SCG (SCGx); assay type: in vivo; conditions: 50 μg melatonin once intraperitoneally

Compound	neurite outgrowth (axon length, branching points) [1]	neuronal cell loss (neuronal cell number per field of view) [1]	diurnal rhythmicity (activity, ratio between dark and light) [2]
Cobra venom factor	rescued	effectively prevented	–
COc1ccc2[nH]cc(CCNC(C)=O)c2c1 [melatonin]	–	–	completely restored; also recorded: rescued
